ChEMBL document CHEMBL1142270, “Synthesis, thermal stability, antimalarial activity of symmetrically and asymmetrically substituted tetraoxanes” (Bioorg Med Chem Lett, 2008)
pIC50: −log10 of the molar value. Activity calls are given as the source filed them. No cut-off for these calls is given here.

Experiments:
Plasmodium falciparum [1] = assay: Antimalarial activity against Plasmodium falciparum D6 in parasite LDH assay; type: functional, organism-based
Plasmodium falciparum [2] = assay: Antimalarial activity against Plasmodium falciparum W2 in parasite LDH assay; type: functional, organism-based
[3] = Selectivity index, ratio of IC50 for African green monkey (Cercopithecus aethiops) Vero cells to IC50 for Plasmodium falciparum D6; type: functional
Vero = assay: Cytotoxicity against african green monkey Vero cells by neutral red assay upto 16.72 uM; type: cell-based; conditions: chlorocebus sabaeus
[4] = Selectivity index, ratio of IC50 for african green monkey (Cercopithecus aethiops) Vero cells to IC50 for Plasmodium falciparum W2; type: functional
Plasmodium falciparum [5] = assay: Antimalarial activity against Plasmodium falciparum D6 in parasite LDH assay to 16.72 uM; type: functional, organism-based
Plasmodium falciparum [6] = assay: Antimalarial activity against Plasmodium falciparum W2 in parasite LDH assay to 16.72 uM; type: functional, organism-based

SMILES	pIC50 (Plasmodium falciparum [1])	pIC50 (Plasmodium falciparum [2])	Ratio IC50 [3]	Activity (Vero)	Ratio IC50 [4]	Activity (Plasmodium falciparum [5])	Activity (Plasmodium falciparum [6])
c1ccc(C2OOC3(CCCCC3)OO2)cc1	5.66	5.74	>9.2	Non-toxic	>11.1	–	–
Brc1ccc(C2OOC3(CCCCCC3)OO2)cc1	–	–	–	–	–	inactive	inactive
Cc1ccc(C2OOC(c3ccc(C)cc3)OO2)cc1 (stereo not given)	5.83	5.93	>11.9	Non-toxic	>14.9	–	–
FC(F)(F)c1ccc(C2OOC(c3ccc(C(F)(F)F)cc3)OO2)cc1 (stereo not given)	–	–	–	–	–	inactive	inactive
Clc1ccc(C2OOC3(CCCCCC3)OO2)cc1	4.78	4.78	>1	Non-toxic	>1	–	–
Clc1ccccc1C1OOC(c2ccccc2Cl)OO1 (stereo not given)	–	–	–	–	–	inactive	inactive
Clc1cccc(C2OOC3(CCCCC3)OO2)c1	5.67	5.61	>8.2	Non-toxic	>7.1	–	–
Clc1ccc(C2OOC3(CCCCC3)OO2)cc1	5.58	5.59	>6.6	Non-toxic	>6.8	–	–
c1ccc(C2OOC3(CCCCCC3)OO2)cc1	5.00	5.12	>1.9	Non-toxic	>2.5	–	–
Clc1ccc(C2OOC3(CCCC3)OO2)cc1	4.78	4.78	>1	Non-toxic	>1	–	–
Brc1ccccc1C1OOC(c2ccccc2Br)OO1 (stereo not given)	–	–	–	–	–	inactive	inactive
Brc1ccc(C2OOC3(CCCCC3)OO2)cc1	5.42	5.27	>4	Non-toxic	>2.8	–	–
Cc1ccccc1C1OOC(c2ccccc2C)OO1 (stereo not given)	5.61	5.89	>7.1	Non-toxic	>13.6	–	–
Fc1ccc(C2OOC(c3ccc(F)cc3)OO2)cc1 (stereo not given)	5.79	5.94	>10.4	Non-toxic	>14.9	–	–
FC(F)(F)c1cccc(C2OOC(c3cccc(C(F)(F)F)c3)OO2)c1 (stereo not given)	–	–	–	–	–	inactive	inactive
CCN(CC)CCCC(C)Nc1ccnc2cc(Cl)ccc12 (stereo not given) [CHLOROQUINE]	–	–	–	Non-toxic	–	–	–
Clc1ccccc1C1OOC2(CCCCC2)OO1	4.85	5.03	>1.3	Non-toxic	>1.9	–	–
Brc1cccc(C2OOC(c3cccc(Br)c3)OO2)c1 (stereo not given)	–	–	–	–	–	inactive	inactive
Clc1ccc(C2OOC(c3ccc(Cl)cc3)OO2)cc1 (stereo not given)	5.35	5.50	>3.4	Non-toxic	>4.8	–	–
Brc1ccc(C2OOC3(CCCC3)OO2)cc1	–	–	–	–	–	inactive	inactive
Brc1ccc(C2OOC(c3ccc(Br)cc3)OO2)cc1 (stereo not given)	5.86	6.17	>8.5	Non-toxic	>13.6	–	–
Cc1cccc(C2OOC(c3cccc(C)c3)OO2)c1 (stereo not given)	6.02	6.11	>18.2	Non-toxic	>22.7	–	–
C[C@@H]1CC[C@H]2[C@@H](C)C(=O)O[C@@H]3O[C@@]4(C)CC[C@@H]1[C@]32OO4 [ARTEMISININ]	7.46	7.82	>476	Non-toxic	>1400	–	–
Clc1cccc(C2OOC(c3cccc(Cl)c3)OO2)c1 (stereo not given)	5.86	6.15	>11.1	Non-toxic	>21.6	–	–
